From patent US20220288048A1, “PIMAVANSERIN FOR TREATING SCHIZOPHRENIA OR FOR TREATING PSYCHOSIS SECONDARY TO NEURODEGENERATIVE DISORDERS OR DEPRESSIVE DISORDER” (ACADIA Pharmaceuticals Inc., priority 2019, published 2022)
“Also recorded” adds a separate entry of the source.

How the values were obtained:
[1] = test system: subjects with schizophrenia who have predominant negative symptoms; assay: Phase 2, 26-week adjunctive pimavanserin study: safety; format: in vivo, human; settings: 26-week study
Method: This study is conducted as a Phase 2, 26-week, randomized, double-blind, placebo-controlled, multicenter, multinational outpatient study in subjects with schizophrenia who have predominant negative symptoms while on adequate treatment with an antipsychotic. Schizophrenia is defined by the Diagnostic and Statistical Manual of Mental Disorders, Fifth Edition (DSM-5), confirmed by a customized module of the Structured Clinical Interview for DSM-5, Clinical Trials Version (SCID-5-CT). This study enrolls approximately 403 subjects with predominant negative symptoms of schizophrenia. In the study, patients were randomized to receive either pimavanserin or placebo added to their current background antipsychotic treatment for 26 weeks in duration. At baseline all patients were started on a daily dose of 20 mg of pimavanserin or placebo with dose adjustments allowed up to 34 mg or down to 10 mg during the first eight weeks of treatment. […]
Safety will be evaluated by analyses of adverse events, vital signs, ECGs, physical examination results, and clinical laboratory tests (including urinalysis), and the Abnormal Involuntary Movement Scale (AIMS), the Barnes Akathisia Rating Scale (BARS), the Simpson-Angus Extrapyramidal Side Effects Scale (SAS), and the Columbia Suicide Severity Rating Scale (C-SSRS).

[2] = test system: scPCP+ARS(2h) treated male C57BL/6J mice; assay: 10-min social interaction test in scPCP-treated mice given 2 h acute restraint stress (treatment-resistant model); format: in vivo; settings: risperidone 0.2, olanzapine 1, aripiprazole 1 or pimavanserin 3 mg/kg ip alone, 45 min prior to test
Method: Briefly, mice were habituated to the test arena (i.e., the NOR box) for 30 minutes prior to the test day. Pairs of mice, unfamiliar to each other, received either the same treatment (e.g., vehicle and vehicle; N=10 pairs) or different treatments (e.g., vehicle; N=10 and phencyclidine (PCP) 10 mg/kg; N=10). After washout, they were placed in the test arena together for 10 minutes. A heavy object made of Plexiglas or metal was placed in the center of the test arena to quantify the time and nature of interaction of the test animals with an unfamiliar object or an unfamiliar animal. After the 10 min test phase, the object and the arena were cleaned with 70% ethanol to remove any olfactory trails. Behavior was recorded on video for subsequent blind scoring.
The following four behaviors were scored for each animal: • a) Sniffing: A normal mouse engages in sniffing the con-specific mouse's body, including the anogenital area • b) Following: A normal mouse pursues a con-specific mouse around the arena • c) Avoiding: A normal mouse avoids the con-specific mouse and move away from a pursuing mouse if approached • d) Object Exploration: A normal mouse explores the object that is placed in the center of the test arena.
Acute restraint stress (ARS) protocol: Mice were assigned to one of two groups: either the control group (non-stress) or the stress group. Generally, mice of the stress group were restrained in well-ventilated 50 mL tubes. After the restraint period of 1 or 2 hours, the mice were transferred into a clean animal housing cage for 1-hour interval and thereafter went through the first social interaction test (different mice are used to test different groups).
Treatment resistant animal model: To establish this model, Acute restraint stress (ARS) was added to scPCP treatment. Two groups (vehicle+ARS; scPCP+ARS) and their controls (vehicle+saline; scPCP+saline) were used. ARS was applied for 1 or 2 hours and tested on SI 1 hour post-ARS.
(§1) The behavioral assay, ARS protocol, and scPCP-treatment as described in Example 2 were used. To test the effect of atypical APD and pimavanserin, alone or as con-administration, in scPCP-treated mice (N=10 pairs of mice per group) given 2 h ARS, risperidone (“Risp”) was administered as 0.2 mg/kg or 0.4 mg/kg ip; olanzapine (“Olan”) as 1.0 mg/kg ip; aripiprazole (“Aripi”) as 1.0 mg/kg ip; and pimavanserin (“Pim”) as 3 mg/kg ip to scPCP+ARS(2h) treated male C57BL/6J mice 45 minutes prior to the commencement of the social interaction task in the 10 min social interaction test. Plasma levels of risperidone were measured using a Triple Quad 6500+ mass spectrometer.

[3] = test system: adult schizophrenia patients; assay: 6-week adjunctive pimavanserin study: safety and adverse events; format: in vivo, human
Method: The effect of pimavanserin as an adjunctive treatment in adult schizophrenia patients with a persistent inadequate response (i.e., partial responders) to their existing antipsychotic therapy was tested. 396 patients with moderate-to-severe psychotic symptoms were randomized to receive either pimavanserin or placebo added to existing antipsychotic treatment.
Patients were administered a daily dose of pimavanserin or a placebo for six weeks. The dose started at 20 mg and could be adjusted to 34 mg or 10 mg between weeks 1 and 3. The majority of patients (56%) completed the study at the highest dose level.
The safety of the pimavanserin arm was similar to placebo, with no new signals observed. […] The overall number of SAEs and AEs leading to discontinuation was low. The most commonly reported AEs leading to discontinuation of treatment were from the psychiatric disorders system and seen in the active arm.

[4] = Plasma levels of risperidone in scPCP and ARS-treated mice (mass spectrometer); format: in vivo; settings: 3 mg/kg pimavanserin with 0.2 mg/kg risperidone
Method: as §1

Pharmacokinetic effect of pimavanserin on risperidone drug levels [4]: not due to a pharmacokinetic effect
Compound: CC(C)COc1ccc(CNC(=O)N(Cc2ccc(F)cc2)C2CCN(C)CC2)cc1 [Pimavanserin, N-(4-Fluorophenylmethyl)-N-(1-methylpiperidin-4-yl)-N′-(4-(2-methylpropyloxy)phenylmethyl)carbamide]
Vital signs, weight, metabolic syndrome, and extrapyramidal symptoms compared to adjunctive placebo [1]: did not result in clinically significant differences
Rate of adverse events ([1]; adjunctive pimavanserin): 40%
Able to restore sniffing or decrease avoidance (SI deficit), drug alone [2]: Neither; also recorded: ineffective
Patients who completed the study ([3]; 6-week study): Approximately 88%
QT prolongation ([3]; 6-week study): Minimal QT prolongation
Vital signs, weight, metabolic syndrome, and extrapyramidal symptoms compared to adjunctive placebo ([3]; 6-week study): did not result in clinically significant differences; also recorded: No effect was seen
Any Related Serious Treatment-Emergent Adverse Event, Events n ([3]; Safety Analysis Set, N = 198): 2
Any Related Serious Treatment-Emergent Adverse Event, Subjects (%) ([3]; Safety Analysis Set, N = 198): 0.5%
Any Related Serious Treatment-Emergent Adverse Event, Subjects n ([3]; Safety Analysis Set, N = 198): 1
Any Related Treatment-Emergent Adverse Event, Events n ([3]; Safety Analysis Set, N = 198): 46
Any Related Treatment-Emergent Adverse Event, Subjects (%) ([3]; Safety Analysis Set, N = 198): 16.7%
Any Related Treatment-Emergent Adverse Event, Subjects n ([3]; Safety Analysis Set, N = 198): 33
Any Serious Treatment-Emergent Adverse Event, Events n ([3]; Safety Analysis Set, N = 198): 3
Any Serious Treatment-Emergent Adverse Event, Subjects (%) ([3]; Safety Analysis Set, N = 198): 1.0%
Any Serious Treatment-Emergent Adverse Event, Subjects n ([3]; Safety Analysis Set, N = 198): 2
Any Treatment-Emergent Adverse Event Leading to Discontinuation or Study Termination, Events n ([3]; Safety Analysis Set, N = 198): 7
Any Treatment-Emergent Adverse Event Leading to Discontinuation or Study Termination, Subjects (%) ([3]; Safety Analysis Set, N = 198): 2.5%
Any Treatment-Emergent Adverse Event Leading to Discontinuation or Study Termination, Subjects n ([3]; Safety Analysis Set, N = 198): 5
Any Treatment-Emergent Adverse Event, Events n ([3]; Safety Analysis Set, N = 198): 142
Any Treatment-Emergent Adverse Event, Subjects (%) ([3]; Safety Analysis Set, N = 198): 40.4%
Any Treatment-Emergent Adverse Event, Subjects n ([3]; Safety Analysis Set, N = 198): 80
Any Serious Treatment-Emergent Adverse Event, Subjects (%) ([3]; Safety Analysis Set, N = 198, listed as pimavanserin): 1%
Adverse events reported in at least 5% of patients ([3]; pimavanserin group, 6-week study): headache, somnolence, and insomnia
